In patent US12209079B2 (GENERAL INCORPORATED ASSOCIATION PHARMA VALLEY PROJECT …, priority 2017, dated 2025):
Where a name gives a salt, the structure may show the parent alone.

Tests used:
[1] = biological target: rhIDO (recombinant human IDO) (Homo sapiens, UniProt P14902); assay: Enzyme assay using rhIDO (rate of kynurenine production); format: biochemical; settings: 2 h; final concentration of the compound 10 μM; rate relative to reaction without compound; read-out: rhIDO-mediated kynurenine production
Chain of rhIDO (recombinant human IDO) (P14902 whole entry): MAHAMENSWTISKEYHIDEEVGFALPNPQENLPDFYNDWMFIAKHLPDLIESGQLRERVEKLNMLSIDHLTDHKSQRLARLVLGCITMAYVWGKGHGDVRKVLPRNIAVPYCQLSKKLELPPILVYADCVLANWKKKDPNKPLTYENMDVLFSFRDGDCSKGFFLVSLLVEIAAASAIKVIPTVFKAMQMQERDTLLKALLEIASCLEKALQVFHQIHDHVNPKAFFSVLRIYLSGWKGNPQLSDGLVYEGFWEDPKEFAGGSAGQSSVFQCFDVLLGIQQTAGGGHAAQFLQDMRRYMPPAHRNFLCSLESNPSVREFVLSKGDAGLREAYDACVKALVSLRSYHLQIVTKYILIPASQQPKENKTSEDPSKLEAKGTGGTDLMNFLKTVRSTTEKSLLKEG
In short: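 rhIDO preincubated with compound 10 min at 37 °C in phosphate buffer with ascorbate, methylene blue and catalase; started with 2 mM tryptophan solution (stock) and run 120 min at 37 °C. Stopped with TCA and heated to convert N-formylkynurenine; kynurenine read at 490 nm after p-dimethylbenzaldehyde, background-subtracted, as % of no-compound control.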

[2] = biological target: rhTDO (recombinant human TDO) (Homo sapiens, UniProt P48775); assay: Enzyme assay using rhTDO (rate of kynurenine production); format: biochemical; settings: 2 h; final concentration of the compound 10 μM; rate relative to reaction without compound; read-out: rhTDO-mediated kynurenine production
Chain of rhTDO (recombinant human TDO) (P48775 whole entry): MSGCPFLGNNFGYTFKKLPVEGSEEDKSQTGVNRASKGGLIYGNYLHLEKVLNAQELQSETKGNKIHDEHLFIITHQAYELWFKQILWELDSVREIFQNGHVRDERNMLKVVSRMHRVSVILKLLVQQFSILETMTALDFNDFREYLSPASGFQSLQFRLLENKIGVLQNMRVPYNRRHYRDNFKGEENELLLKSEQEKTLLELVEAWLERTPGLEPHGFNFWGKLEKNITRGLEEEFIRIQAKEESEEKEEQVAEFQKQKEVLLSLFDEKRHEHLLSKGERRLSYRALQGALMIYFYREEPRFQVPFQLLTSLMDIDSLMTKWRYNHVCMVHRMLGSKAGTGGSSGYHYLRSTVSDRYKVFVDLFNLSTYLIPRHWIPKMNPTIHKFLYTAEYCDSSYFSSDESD
In short: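 Kynurenine output, as percent of untreated control after background subtraction, read at 490 nm with p-dimethylbenzaldehyde following TCA quench and 15 min heating at 50 °C. Reaction: rhTDO with compound, 10 min preincubation then 120 min at 37 °C, started by 20 mM tryptophan stock, in phosphate/ascorbate/methylene blue/catalase.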

IDO in A431 cells = biological target: T1, IDO in A431 cells (Homo sapiens, UniProt P14902); assay: IDO cell-based assay, kynurenine production in IFN-γ stimulated A431 cells; settings: A-431, 24 h; final concentration of the compound 10 μM; rate relative to culture without compound
T1 construct: endogenous in cells; host or cells: A431 cells, IFN-γ stimulated
T1 sequence (P14902 whole entry): as the sequence (P14902 whole entry) above
In short: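 A431 cells were cultured 24 h, then preincubated 1 h with compound in medium containing 178 μM L-tryptophan, and stimulated with IFN-γ (diluted to 100 ng/mL before addition) for 24 h. Kynurenine was measured by p-dimethylbenzaldehyde absorbance at 460 nm, background-subtracted, and expressed as % production versus no-compound control.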

TDO in A172 cells = biological target: T2, TDO in A172 cells (Homo sapiens, UniProt P48775); assay: TDO cell-based assay, kynurenine production in A172 cells; settings: A 172; final concentration of the compound 10 μM; rate relative to culture without compound
T2 construct: endogenous in cells; host or cells: A172 cells
T2 sequence (P48775 whole entry): as the sequence (P48775 whole entry) above
In short: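 A172 cells were preincubated with compound for 1 h, then given L-tryptophan (final 524 μM) for 24 h at 37 °C. Kynurenine was read at 460 nm after p-dimethylbenzaldehyde/TCA reagent, background-subtracted, and expressed as % of no-compound production.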

Compound `Fc1ccc(CSC2=NCN(CCc3cccc(C(F)(F)F)c3)CN2)c(CSC2=NCN(CCc3cccc(C(F)(F)F)c3)CN2)c1` [Compound 150, 6,6′-(((4-Fluoro-1,2-phenylene)bis(methylene))bis(sulfanediyl))bis(3-(3-(trifluoromethyl)phenethyl)-1,2,3,4-tetrahydro-1,3,5-triazine)] has a remaining activity at 10 µM [1] of 23%, a remaining activity at 10 µM [2] of 11% and a remaining activity at 10 µM (IDO in A431 cells) of 15%. The remaining activity at 10 µM (TDO in A172 cells) was 13%.

Work on `N=C(N)SCc1sc2ccccc2c1CSC(=N)N` [Compound 151, Benzo[b]thiophene-2,3-diylbis(methylene) dicarbamimidothioate dihydrobromide] yielded a remaining activity at 10 µM [1] of 13%, a remaining activity at 10 µM [2] of 11% and a remaining activity at 10 µM (IDO in A431 cells) of 33%. For the same compound, the remaining activity at 10 µM (TDO in A172 cells) was 76%.

`FC(F)(F)c1cccc(CCN2CN=C(SCc3cc(Cl)c(Cl)cc3CSC3=NCN(CCc4cccc(C(F)(F)F)c4)CN3)NC2)c1` [Compound 152, 6,6′-(((4,5-Dichloro-1,2-phenylene)bis(methylene))bis(sulfanediyl))bis(3-(3-(trifluoromethyl)phenethyl)-1,2,3,4-tetrahydro-1,3,5-triazine)] gave a remaining activity at 10 µM [1] of 7%, a remaining activity at 10 µM [2] of 7% and a remaining activity at 10 µM (IDO in A431 cells) of 9%. The remaining activity at 10 µM (TDO in A172 cells) was 6%.

In the case of `COc1cccc(CCN2CN=C(SCc3cc(Cl)c(Cl)cc3CSC3=NCN(CCc4cccc(OC)c4)CN3)NC2)c1` [Compound 153, 6,6′-(((4,5-Dichloro-1,2-phenylene)bis(methylene))bis(sulfanediyl))bis(3-(3-methoxyphenethyl)-1,2,3,4-tetrahydro-1,3,5-triazine)], the remaining activity at 10 µM [1] is reported as 8%, the remaining activity at 10 µM [2] is reported as 6% and the remaining activity at 10 µM (IDO in A431 cells) is reported as 12%. The remaining activity at 10 µM (TDO in A172 cells) was 9%.
